Values quoted from earlier work in patent US20100040600A1, “Agents for Promoting the Growth of Hematopoietic Stem Cells” (CHUGAI SEIYAKU KABUSHIKI KAISHA, priority 2006, published 2010).
pEC50: −log10 of the molar value. Numbered stars: 1 amine (or outer) side, 2 acyl side, 3 side chain; on linkers, the order of the positions; unused ones are H or OH. Bridge positions count the residues as written; N and C are the ends. Square brackets hold non-standard residues; d marks the D form. Peptide text beside a SMILES is read from it. I, II: the chains in the order shown. 2Nal = N[CH](Cc1ccc2ccccc2c1)C(=O)O; X1 = NC(N)NCCCC(N[*:1])C(=O)[*:2]; NMeI = CC[CH](C)[CH](NC)C(=O)O; Sar = CNCC(=O)O

What was measured:
[1] = system: Hu BM CD34; settings: in vitro activity; read-out: Hu BM CD34 differentiation assay: EC50; cited from earlier work
[2] = cited from earlier work
[3] = target: T1, hu c-mpl transmembrane domain (Homo sapiens, UniProt P40238); settings: cited from earlier work
T1 sequence (P40238 26-635): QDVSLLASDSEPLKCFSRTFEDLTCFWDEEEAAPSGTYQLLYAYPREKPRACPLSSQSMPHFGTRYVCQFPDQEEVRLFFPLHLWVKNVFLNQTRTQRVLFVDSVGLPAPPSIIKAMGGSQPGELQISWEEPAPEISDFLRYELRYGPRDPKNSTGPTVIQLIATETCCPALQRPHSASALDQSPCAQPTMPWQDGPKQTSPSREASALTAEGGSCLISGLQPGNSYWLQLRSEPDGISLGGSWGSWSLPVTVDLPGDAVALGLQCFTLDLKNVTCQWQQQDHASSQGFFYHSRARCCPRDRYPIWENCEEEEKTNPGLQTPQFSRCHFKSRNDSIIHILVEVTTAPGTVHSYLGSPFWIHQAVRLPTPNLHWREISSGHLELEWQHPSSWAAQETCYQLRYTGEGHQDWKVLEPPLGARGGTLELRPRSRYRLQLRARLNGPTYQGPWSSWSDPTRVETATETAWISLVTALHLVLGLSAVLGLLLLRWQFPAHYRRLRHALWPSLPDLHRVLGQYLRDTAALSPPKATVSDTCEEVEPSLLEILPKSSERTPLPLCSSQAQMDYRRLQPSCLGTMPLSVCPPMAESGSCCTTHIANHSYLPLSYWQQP

[4] = target: T2, c-mpl (Homo sapiens, UniProt P40238); settings: cited from earlier work
T2 sequence (P40238 26-635): T1 sequence (P40238 26-635)

[5] = system: c-mpl; settings: cited from earlier work
[6] = system: c-mpl; settings: cited from earlier work; remark: listed apart in the source
[7] = target: T3, c-mpl (Mus musculus, UniProt Q08351); settings: cited from earlier work
T3 sequence (Q08351 26-625): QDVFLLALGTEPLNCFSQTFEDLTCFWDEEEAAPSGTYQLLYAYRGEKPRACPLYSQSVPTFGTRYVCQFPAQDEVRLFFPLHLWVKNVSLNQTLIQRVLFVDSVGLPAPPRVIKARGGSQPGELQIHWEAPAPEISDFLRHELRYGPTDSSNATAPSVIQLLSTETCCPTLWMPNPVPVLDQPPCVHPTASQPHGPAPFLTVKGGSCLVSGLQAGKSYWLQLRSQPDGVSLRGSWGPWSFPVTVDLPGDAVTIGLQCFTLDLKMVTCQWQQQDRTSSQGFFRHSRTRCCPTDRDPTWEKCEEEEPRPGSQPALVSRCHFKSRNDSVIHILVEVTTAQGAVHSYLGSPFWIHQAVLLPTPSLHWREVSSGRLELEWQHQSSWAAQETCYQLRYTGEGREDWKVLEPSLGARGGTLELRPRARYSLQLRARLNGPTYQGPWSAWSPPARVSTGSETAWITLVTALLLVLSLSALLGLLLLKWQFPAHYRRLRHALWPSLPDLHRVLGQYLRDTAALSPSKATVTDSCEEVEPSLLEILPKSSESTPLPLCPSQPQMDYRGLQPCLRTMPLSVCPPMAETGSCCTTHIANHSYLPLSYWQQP

[8] = system: c-mpl; settings: cited from earlier work; remark: listed apart in the source
[9] = target: T4, mouse receptors (Mus musculus, UniProt Q08351); settings: cited from earlier work
T4 sequence (Q08351 26-625): T3 sequence (Q08351 26-625)

[10] = system: rat receptors; settings: cited from earlier work
[11] = system: dog receptors; settings: cited from earlier work

Row | Compound | pEC50 [1] | T1/2 [2] | Binding site [3] | species specificity [4] | cross-reactivity: cynomolgus macaques [5] | cross-reactivity: cat [6] | cross-reactivity: mouse [7] | cross-reactivity: chimpanzee [8] | cross-reactivity to mouse receptors [9] | cross-reactivity to rat receptors [10] | cross-reactivity to dog receptors [11]
1 | CC1=NN(c2ccc(C)c(C)c2)C(=O)/C1=N\Nc1cccc(-c2cccc(C(=O)O)c2)c1O [SB297115/Eltrombopag] | ~7.00 | T1/2 = 12 hr | Binding site: a hu c-mpl transmembrane domain (His499, Thr496) | High species specificity | No cross-reactivity: cynomolgus macaques, cat, mouse, etc. | No cross-reactivity: cynomolgus macaques, cat, mouse, etc. | No cross-reactivity: cynomolgus macaques, cat, mouse, etc. | Cross-reactivity: chimpanzee |  |  | 
2 | CCC(C)C(N)C(=O)NC(CCC(=O)O)C(=O)NCC(=O)N1CCCC1C(=O)NC(C(=O)NC(CC(C)C)C(=O)NC(CCCNC(=N)N)C(=O)NC(CCC(N)=O)C(=O)NC(Cc1ccc2ccccc2c1)C(=O)NC(CC(C)C)C(=O)NC(C)C(=O)NC(C)C(=O)NC(CCCNC(=N)N)C(=O)N(C)CC(=O)NC(CCCCNC(=O)CN(C)C(=O)C(CCCNC(N)N)NC(=O)C(C)NC(=O)C(C)NC(=O)C(CC(C)C)NC(=O)C(Cc1ccc2ccccc2c1)NC(=O)C(CCC(N)=O)NC(=O)C(CCCNC(=N)N)NC(=O)C(CC(C)C)NC(=O)C(NC(=O)C1CCCN1C(=O)CNC(=O)C(CCC(=O)O)NC(=O)C(NC)C(C)CC)C(C)O)C(N)=O)C(C)O (centres unmarked) [peg-TPOmp] (I: H-IEGPTLRQ[2Nal]LAAR[Sar]K-NH2 / II: H-[NMeI]EGPTLRQ[2Nal]LAA[X1][Sar]; amide I:15-II:C; configuration not given here) |  |  |  |  |  |  |  |  | Cross-reactive to mouse, rat, and dog receptors | Cross-reactive to mouse, rat, and dog receptors | Cross-reactive to mouse, rat, and dog receptors
